Literature values, collected in US8394309B2, “Resin film and method for producing it, polarizer and liquid crystal display device” (FUJIFILM Corporation, priority 2010, dated 2013).

settings: Table 1

Row | Organic acid: Acid dissociation constant | Compound
1 | 3.2 | CCCCCCCC/C=C/CCCCCCCC(=O)OCC(O)COC(=O)CC(O)(CC(=O)O)C(=O)O (centres unmarked) [Citric and oleic acid esters of glycerol, citric and oleic acid esters of glycerol]
2 | 3.2 | O=C(O)CN(CC(=O)O)Cc1ccccc1 [N-benzylimino-diacetic acid, N-benzyliminodiacetic acid]
3 | 4.9 | CCCCCCCC/C=C\CCCCCCCC(=O)O [Oleic acid]
4 | 4.8 | CCCCCCCCCCC(=O)O [Undecanoic acid]
5 | 4.0 | O=C(O)CC(O)(CC(=O)O)C(=O)O [Citric acid, reference compound]
6 | 6.0 | CCCCOB(OCCCC)OCCCC [Tributyl borate, reference compound]
7 | 4.8 | CCCCC(=O)O [Valeric acid, reference compound]
8 | 4.5 | CCCCCCCCCCCCN(CC(=O)O)CC(=O)O [lauramino-diacetic acid, lauraminodiacetic acid]
